# Laboratory results taken from US20100204230A1, “PIPERAZINE DERIVATIVES FOR TREATMENT OF AD AND RELATED CONDITIONS” (priority 2007, published 2010).
# Biological target: T1, γ-secretase (Aβ(1-42) production in SH-SY5Y neuroblastoma cells overexpressing SPA4CT) (Homo sapiens, UniProt P49768)
# T1 construct: Human SH-SY5Y neuroblastoma cells overexpressing the direct 7-secretase substrate SPA4CT; endogenous in cells; host or cells: Human SH-SY5Y neuroblastoma cells (stably overexpressing the substrate SPA4CT, induced with sodium butyrate)
# Assay: Cell-based γ-secretase assay, Aβ(1-42) inhibition
# Settings: overnight incubation, Meso Scale detection of Aβ(42)
# Description: Cell-Based γ-Secretase Assay
# Human SH-SY5Y neuroblastoma cells overexpressing the direct 7-secretase substrate SPA4CT were induced with sodium butyrate (10 mM) for 4 hours prior to plating. Cells were plated at 35,000 cells/well/100 μl in 96-well plates in phenol red-free MEM/10% FBS, 50 mM HEPES, 1% Glutamine and incubated for 2 hrs at 37° C., 5% CO2.
# Compounds for testing were diluted into Me2SO to give a ten point dose-response curve. Typically 10 μl of these diluted compounds in Me2SO were further diluted into 182 μl dilution buffer (phenol red-free MEM/10% FBS, 50 mM HEPES, 1% Glutamine) and 10 μl of each dilution was added to the cells in 96-well plates (yielding a final Me2SO concentration of 0.5%). Appropriate vehicle and inhibitor controls were used to determine the window of the assay.
# After incubation overnight at 37° C., 5% CO2, 25 μl and 50 μl media were transferred into a standard Meso avidin-coated 96-well plate for detection of Aβ(40) and Aβ(42) peptides, respectively. 25 μl Meso Assay buffer (PBS, 2% BSA, 0.2% Tween-20) was added to the Aβ(40) wells followed by the addition of 25 μl of the respective antibody premixes to the wells: • Aβ(40) premix: 1 μg/ml ruthenylated G2-10 antibody, 4 μg/ml biotinylated 4G8 antibody diluted in Origen buffer • Aβ(42) premix: 1 μg/ml ruthenylated G2-11 antibody, 4 μg/ml biotinylated 4G8 antibody diluted in Origen buffer
# (Biotinylated 4G8 antibody supplied by Signet Pathology Ltd; G2-10 and G2-11 antibodies supplied by Chemicon)
# After overnight incubation of the assay plates on a shaker at 4° C., the Meso Scale Sector 6000 Imager was calibrated according to the manufacturer's instructions. After washing the plates 3 times with 150 μl of PBS per well, 150 μl Meso Scale Discovery read buffer was added to each well and the plates were read on the Sector 6000 Imager according to the manufacturer's instructions.
# LD50 and IC50 values for inhibition of Aβ(40) and Aβ(42) were calculated by nonlinear regression fit analysis using the appropriate software (eg. Excel fit). The total signal and the background were defined by the corresponding Me2SO and inhibitor controls.
row,Compound,IC50 [nM]
1,CCN(CC)c1ccc(Nc2ccnc(N3CCN(c4ccc(OC)nc4)CC3)n2)c(C)c1 [Example 5],1000 to 3000
2,COc1ccc(N2CCN(c3ncc(F)c(Nc4cc(C(C)(C)C)ccc4C)n3)CC2(C)C)cc1 [Example 8],500 to 1000
3,"CCN(CC)c1ccc(Nc2ccnc(N3CCN(c4ccc(OC)cc4)C(C)C3)n2)c(C)c1 (stereo not shown) [Example 10, N4,N4-diethyl-N1-{2-[4-(4-methoxyphenyl)-3-methylpiperazin-1-yl]pyrimidin-4-yl}-2-methylbenzene-1,4-diamine]",500 to 1000
4,"COc1ccc(N2CCN(c3nccc(Nc4ccc(N5CCC5)cc4C)n3)CC2(C)C)cc1 [Example 43, N-(4-azetidin-1-yl-2-methylphenyl)-2-[4-(4-methoxyphenyl)-3,3-dimethylpiperazin-1-yl]pyrimidin-4-amine]",500 to 1000
5,"CCN(CC)c1ccc(Nc2ccnc(N3CCN(c4ccc(OC)c(OC)c4)CC3)n2)c(C)c1 [Example 24, N1-{2-[4-(3,4-dimethoxyphenyl)piperazin-1-yl]pyrimidin-4-yl}-N4,N4-diethyl-2-methylbenzene-1,4-diamine]",1000 to 3000
6,"CCN(CC)c1ccc(Nc2cc(C(=O)O)nc(N3CCN(c4ccc(OC)cc4)C(C)(C)C3)n2)c(C)c1 [Example 26, 6-[[4-(diethylamino)-2-methylphenyl]amino]-2-[4-(4-methoxyphenyl)-3,3-dimethyl-1-piperazinyl]-4-pyrimidinecarboxylic acid]",500 to 1000
7,"COc1ccc(N2CCN(c3ncc(F)c(Nc4cc(C(C)(C)C)ccc4C)n3)CC2(C)C)cc1F [Example 88, N-(5-tert-butyl-2-methylphenyl)-5-fluoro-2-[4-(3-fluoro-4-methoxyphenyl)-3,3-dimethylpiperazin-1-yl]pyrimidin-4-amine]",500 to 1000
8,"COc1ccc(N2CCN(c3nccc(Nc4ccc(-n5cccn5)cc4C)n3)CC2(C)C)cc1 [Example 41, 2-[4-(4-methoxyphenyl)-3,3-dimethylpiperazin-1-yl]-N-[2-methyl-4-(1H-pyrazol-1-yl)phenyl]pyrimidin-4-amine]",500 to 1000
9,"CCN(CC)c1ccc(Nc2ccnc(N3CCN(c4ccc(OC)cc4)CC3)n2)c(C)c1 [Example 3, N,N-Diethyl-N-{2-[4-(4-methoxy-phenyl)-piperazin-1-yl]-pyrimidin-4-yl}-2-methyl-benzene-1,4-diamine]",1000 to 3000
10,"COc1ccc(N2CCN(c3nccc(Nc4cc(OC)ccc4C)n3)CC2(C)C)cc1 [Example 11, N-(5-methoxy-2-methylphenyl)-2-[4-(4-methoxyphenyl)-3,3-dimethylpiperazin-1-yl]pyrimidin-4-amine]",1000 to 3000
11,"CCN(CC)c1ccc(Nc2cc(C)nc(N3CCN(c4ccc(OC)cc4)C(C)(C)C3)n2)c(C)c1 [Example 15, N4,N4-diethyl-N1-{2-[4-(4-methoxyphenyl)-3,3-dimethylpiperazin-1-yl]-6-methylpyrimidin-4-yl}-2-methylbenzene-1,4-diamine]",500 to 1000
12,"COc1ccc(N2CCN(c3nccc(Nc4cc(C(C)(C)C)nn4C)n3)CC2(C)C)cc1 [Example 37, N-(3-tert-butyl-1-methyl-1H-pyrazol-5-yl)-2-[4-(4-methoxyphenyl)-3,3-dimethylpiperazin-1-yl]pyrimidin-4-amine]",< 500
13,"CCCCc1ccc(Nc2ccnc(N3CCN(c4ccc(OC)cc4)C(C)(C)C3)n2)c(C)c1 [Example 44, N-(4-butyl-2-methylphenyl)-2-[4-(4-methoxyphenyl)-3,3-dimethylpiperazin-1-yl]pyrimidin-4-amine]",1000 to 3000
14,"CCN(CC)c1ccc(Nc2nc(N3CCN(c4ccc(OC)cc4)C(C)(C)C3)ncc2Br)c(C)c1 [Example 20, N1-{5-bromo-2-[4-(4-methoxyphenyl)-3,3-dimethylpiperazin-1-yl]pyrimidin-4-yl}-N4,N4-diethyl-2-methylbenzene-1,4-diamine]",500 to 1000
15,"CCN(CC)c1ccc(Nc2nc(N3CCN(c4ccc(OC)cc4)C(C)(C)C3)ncc2Cl)c(C)c1 [Example 19, N1-{5-chloro-2-[4-(4-methoxyphenyl)-3,3-dimethylpiperazin-1-yl]pyrimidin-4-yl}-N4,N4-diethyl-2-methylbenzene-1,4-diamine]",500 to 1000

# Now from value to molecule:
row,IC50 [nM],Compound
1,< 500,"CCN(CC)c1ccc(Nc2nc(N3CCN(c4ccc(OC)cc4)C(C)(C)C3)ncc2F)c(C)c1 [Example 18, N4,N4-diethyl-N1--{5-fluoro-2-[4-(4-methoxyphenyl)-3,3-dimethylpiperazin-1-yl]pyrimidin-4-yl}-2-methylbenzene-1,4-diamine]"
2,< 500,"CCN(CC)c1ccc(Nc2cc(C(=O)N(C)C)nc(N3CCN(c4ccc(OC)cc4)C(C)(C)C3)n2)c(C)c1 [Example 27, 6-{[4-(diethylamino)-2-methylphenyl]amino}-2-[4-(4-methoxyphenyl)-3,3-dimethylpiperazin-1-yl]-N,N-dimethylpyrimidine-4-carboxamide]"
3,< 500,"CCOc1cc(C)c(Nc2cc(C(=O)OC)nc(N3CCN(c4ccc(OC)cc4)C(C)(C)C3)n2)cc1C(C)C [Example 28, 6-[(4-ethoxy-5-isopropyl-2-methylphenyl)amino]-2-[4-(4-methoxyphenyl)-3,3-dimethylpiperazin-1-yl]pyrimidine-4-carboxylate methyl]"
4,< 500,"CCN(CC)c1ccc(Nc2cc(C(=O)OC)nc(N3CCN(c4ccc(OC)cc4)C(C)(C)C3)n2)c(C)c1 [Example 22, methyl 6-{[4-(diethylamino)-2-methylphenyl]amino}-2-[4-(4-methoxyphenyl)-3,3-dimethylpiperazin-1-yl]pyrimidine-4-carboxylate]"
5,< 500,"CCN(CC)c1cc(C)c(Nc2ccnc(N3CCN(c4ccc(OC)cc4)C(C)(C)C3)n2)cc1C [Example 16, N4,N4-diethyl-N1-{2-[4-(4-methoxyphenyl)-3,3-dimethylpiperazin-1-yl]pyrimidin-4-yl}-2,5-dimethylbenzene-1,4-diamine]"
6,< 500,"COc1ccc(N2CCN(c3ncc(F)c(Nc4cc(C(C)(C)C)nn4C)n3)CC2(C)C)cc1 [Example 38, N-(3-tert-butyl-1-methyl-1H-pyrazol-5-yl)-5-fluoro-2-[4-(4-methoxyphenyl)-3,3-dimethylpiperazin-1-yl]pyrimidin-4-amine]"
7,< 500,"CCN(CC)c1ccc(Nc2nc(N3CCN(c4ccc(OC)cc4)C(C)(C)C3)ncc2C)c(C)c1 [Example 14, N4,N4-diethyl-N1-{2-[4-(4-methoxyphenyl)-3,3-dimethylpiperazin-1-yl]-5-methylpyrimidin-4-yl}-2-methylbenzene-1,4-diamine]"
8,< 500,"CCN(CC)c1ccc(Nc2nc(N3CCN(c4ccc(OC)cc4)C(C)(C)C3)ncc2OC)c(C)c1 [Example 25, N4,N4-diethyl-N1-{5-methoxy-2-[4-(4-methoxyphenyl)-3,3-dimethylpiperazin-1-yl]pyrimidin-4-yl}-2-methylbenzene-1,4-diamine]"
9,< 500,"COc1ccc(N2CCN(c3nc(Nc4cc(C(C)(C)C)ccc4C)cc(C(=O)N(C)CCN(C)C)n3)CC2(C)C)cc1 [Example 93, 6-[(5-tert-butyl-2-methylphenyl)amino]-N-[2-(dimethylamino)ethyl]-2-[4-(4-methoxyphenyl)-3,3-dimethylpiperazin-1-yl]-N-methylpyrimidine-4-carboxamide]"
10,< 500,"CCOc1cc(C)c(Nc2ccnc(N3CCN(c4ccc(OC)cc4)C(C)(C)C3)n2)cc1C(C)C [Example 45, N-(4-ethoxy-5-isopropyl-2-methylphenyl)-2-[4-(4-methoxyphenyl)-3,3-dimethylpiperazin-1-yl]pyrimidin-4-amine]"
